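Step 1: Grow cells in 96-well plates. Step 2: Expose to compound for 48 hours at 5 concentrations. Step 3: Interpolate endpoints linearly; if unreached, use highest concentration. GI50: concentration for 50% inhibition of growth. At the TGI there is no net growth.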 A value given as a limit tells only on which side of the number the result lay.

Test systems include SK-MEL-5 melanoma; UACC-62 melanoma; OVCAR-8 ovarian; CCRF-CEM leukemia; EKVX NSCLC; SNB-19 CNS; NCI-H460 lung; NCI-H522 lung; RXF 393 renal; HL-60(TB) leukemia.
What all share (experiment): growth of human tumour cells (NCI), 48 h

In the case of `O=C(Oc1cccnc1)c1ccsc1Nc1ccnc(C(F)(F)F)c1`, the GI50 in the assay with SK-MEL-5 melanoma is 5.26 µM; in the assay with UACC-62 melanoma, 44.8 µM; in the assay on OVCAR-8 ovarian it was 4.14 µM; with CCRF-CEM leukemia, 4.19 µM; in the assay on EKVX NSCLC, 34.2 µM; in the assay with SNB-19 CNS, 20.7 µM. Further, the values for the GI50 in the assay on NCI-H460 lung, in the assay on NCI-H522 lung and in the assay with RXF 393 renal were 17.7 µM, 2.36 µM and 6.26 µM, respectively. Moreover, the TGI was 30.1 µM in the assay with SK-MEL-5 melanoma; over 100 µM in the assay on UACC-62 melanoma; over 100 µM in the assay with OVCAR-8 ovarian; over 100 µM in the assay with CCRF-CEM leukemia; over 100 µM in the assay on EKVX NSCLC; over 100 µM with SNB-19 CNS. The TGI with NCI-H460 lung was over 100 µM; in the assay with NCI-H522 lung, 8.36 µM; with RXF 393 renal, 34.8 µM.

With `Cc1cccc(NC(=O)c2sc3nc4c(cc3c2N)CN(Cc2ccccc2)CC4)c1C`, the GI50 is 0.213 µM with SK-MEL-5 melanoma; 0.274 µM with UACC-62 melanoma; 0.297 µM with OVCAR-8 ovarian; 0.195 µM in the assay with CCRF-CEM leukemia; 0.45 µM in the assay on EKVX NSCLC; 0.283 µM in the assay on SNB-19 CNS. For the same compound, the GI50 in the assay on NCI-H460 lung was 0.196 µM; in the assay on NCI-H522 lung, 0.138 µM; in the assay on RXF 393 renal, 0.133 µM. The TGI in the assay with SK-MEL-5 melanoma, with UACC-62 melanoma, in the assay with OVCAR-8 ovarian, in the assay on CCRF-CEM leukemia, in the assay with EKVX NSCLC and with SNB-19 CNS was over 50 µM throughout. Besides, the TGI with NCI-H460 lung was over 50 µM; in the assay with NCI-H522 lung, over 50 µM; in the assay on RXF 393 renal it was 2.11 µM.

As for `C=C1CCC2[C@@H](CCC3[C@]2(C)CCC[C@]3(C)C(=O)OC)[C@@H]1CC=O` (some centres not stated), the TGI in the assay with SK-MEL-5 melanoma was found to be 32.5 µM; with HL-60(TB) leukemia, 55.9 µM; in the assay on UACC-62 melanoma it was 64.5 µM; in the assay on OVCAR-8 ovarian it was 49.2 µM; with CCRF-CEM leukemia it was 64.2 µM; in the assay with EKVX NSCLC, 77.6 µM. Further, the TGI with SNB-19 CNS was over 100 µM; in the assay on NCI-H460 lung, 41.3 µM; with NCI-H522 lung, over 100 µM. Besides, the GI50 with SNB-19 CNS was 47.5 µM; with NCI-H522 lung it was over 100 µM.

Turning to `COc1ccc(OC)c(C2SCC(=O)N2NC(=O)C(O)c2ccccc2)c1` (configuration not stated), the GI50 in the assay with SK-MEL-5 melanoma, in the assay with UACC-62 melanoma, in the assay with OVCAR-8 ovarian, in the assay on CCRF-CEM leukemia, in the assay with EKVX NSCLC and with SNB-19 CNS was over 100 µM in each case. The GI50 in the assay with NCI-H460 lung, with NCI-H522 lung and in the assay with RXF 393 renal was over 100 µM in each case. Moreover, the TGI in the assay with SK-MEL-5 melanoma, with UACC-62 melanoma, with OVCAR-8 ovarian, in the assay with CCRF-CEM leukemia, in the assay with EKVX NSCLC and with SNB-19 CNS was over 100 µM throughout. For the same compound, the TGI in the assay on NCI-H460 lung, in the assay with NCI-H522 lung and in the assay on RXF 393 renal was over 100 µM in each case.

Regarding `Cc1ccc(C2=Nc3ccccc3SC(c3cccc([N+](=O)[O-])c3)C2)cc1` (configuration not stated), the TGI in the assay with SK-MEL-5 melanoma was over 100 µM; with UACC-62 melanoma, over 100 µM; in the assay with OVCAR-8 ovarian, 71.2 µM; with EKVX NSCLC, over 100 µM; in the assay with SNB-19 CNS it was over 100 µM; in the assay on NCI-H460 lung, over 100 µM. The TGI with NCI-H522 lung was determined as 64.6 µM; with RXF 393 renal, 72.2 µM.

In the case of `COc1cc(-c2cc(-c3cc([N+](=O)[O-])c(/C=N/NC(=O)c4ccncc4)o3)ccc2OC)ccc1C`, the TGI with UACC-62 melanoma, in the assay on EKVX NSCLC, in the assay on SNB-19 CNS, in the assay on NCI-H522 lung and with RXF 393 renal was over 100 µM in each case.

Take `CCOC(=O)C(=O)Nc1cc(Cl)ccc1Cl`: the TGI in the assay with SK-MEL-5 melanoma, in the assay on HL-60(TB) leukemia, in the assay with UACC-62 melanoma, in the assay with OVCAR-8 ovarian, in the assay on CCRF-CEM leukemia and in the assay with EKVX NSCLC was over 100 µM throughout. The TGI in the assay with SNB-19 CNS, in the assay on NCI-H460 lung and in the assay with NCI-H522 lung was over 100 µM throughout.

For the compound `O=C([CH-]C(=O)c1ccccc1)c1ccccc1.O=C([CH-]C(=O)c1ccccc1)c1ccccc1.[OH-].[OH-].[Ti+4]`, the GI50 in the assay with SK-MEL-5 melanoma is 31.2 µM; with HL-60(TB) leukemia, over 100 µM; in the assay with UACC-62 melanoma, 66.5 µM; in the assay on OVCAR-8 ovarian, 55 µM; with EKVX NSCLC, 94.9 µM; in the assay with SNB-19 CNS, 39.9 µM. Besides, the GI50 in the assay with NCI-H460 lung was 60.3 µM; in the assay on NCI-H522 lung it was 24.2 µM; in the assay on RXF 393 renal, 6.85 µM. Further, the TGI in the assay on SK-MEL-5 melanoma, in the assay on HL-60(TB) leukemia, in the assay with UACC-62 melanoma, in the assay with OVCAR-8 ovarian, in the assay with EKVX NSCLC and in the assay with SNB-19 CNS was over 100 µM throughout. For the same compound, the values for the TGI in the assay with NCI-H460 lung, with NCI-H522 lung and with RXF 393 renal were over 100 µM, 69.7 µM and 25.9 µM, respectively.

Consider `COc1ccc2c(c1)OC1=C(C(=O)OC1)C2c1cc(OC)c2c(c1)OCO2` (configuration not stated), for which the GI50 is 0.0383 µM in the assay on SK-MEL-5 melanoma; 0.0342 µM with HL-60(TB) leukemia; 0.0478 µM with UACC-62 melanoma; 0.0516 µM in the assay with OVCAR-8 ovarian; 0.0378 µM in the assay on CCRF-CEM leukemia; 0.0531 µM in the assay with SNB-19 CNS. Also, the figures for the GI50 in the assay on NCI-H460 lung and in the assay on NCI-H522 lung were 0.0374 µM and under 0.0111 µM, respectively. The TGI in the assay with SK-MEL-5 melanoma was 0.325 µM; in the assay on UACC-62 melanoma it was over 100 µM; with OVCAR-8 ovarian, over 100 µM; with CCRF-CEM leukemia, over 100 µM; in the assay with EKVX NSCLC, over 100 µM; in the assay with SNB-19 CNS, over 100 µM. Further, the TGI was over 100 µM with NCI-H460 lung and 0.0472 µM in the assay with NCI-H522 lung.

`N#Cc1ccc(N=Cc2c([O-])ccc3ccccc23)cc1.[C-]#[O+].[C-]#[O+].[Ir]`: the GI50 in the assay with SK-MEL-5 melanoma is 13.4 µM; in the assay on HL-60(TB) leukemia it was 1.5 µM; with UACC-62 melanoma it was 12.2 µM; in the assay on OVCAR-8 ovarian, 6.03 µM; in the assay with CCRF-CEM leukemia, 1.67 µM; with EKVX NSCLC, 11.5 µM. The figures for the GI50 in the assay on SNB-19 CNS and with NCI-H522 lung were 18.4 µM and 1.13 µM, respectively. The TGI in the assay on SK-MEL-5 melanoma was determined as 26.2 µM; in the assay with HL-60(TB) leukemia, 5.18 µM; in the assay on UACC-62 melanoma, 24.6 µM; in the assay on OVCAR-8 ovarian, 28 µM; in the assay with CCRF-CEM leukemia it was 7.1 µM; with EKVX NSCLC, 25 µM. The TGI with SNB-19 CNS was determined as 33.2 µM; in the assay with NCI-H522 lung, 2.45 µM.

Source of the values: PubChem BioAssay (NCI).
